The target of data set [1] is T1, Recombinant human 5′-nucleotidase (hCD73) (Homo sapiens, UniProt P21589).
T1 sequence (P21589 27-549): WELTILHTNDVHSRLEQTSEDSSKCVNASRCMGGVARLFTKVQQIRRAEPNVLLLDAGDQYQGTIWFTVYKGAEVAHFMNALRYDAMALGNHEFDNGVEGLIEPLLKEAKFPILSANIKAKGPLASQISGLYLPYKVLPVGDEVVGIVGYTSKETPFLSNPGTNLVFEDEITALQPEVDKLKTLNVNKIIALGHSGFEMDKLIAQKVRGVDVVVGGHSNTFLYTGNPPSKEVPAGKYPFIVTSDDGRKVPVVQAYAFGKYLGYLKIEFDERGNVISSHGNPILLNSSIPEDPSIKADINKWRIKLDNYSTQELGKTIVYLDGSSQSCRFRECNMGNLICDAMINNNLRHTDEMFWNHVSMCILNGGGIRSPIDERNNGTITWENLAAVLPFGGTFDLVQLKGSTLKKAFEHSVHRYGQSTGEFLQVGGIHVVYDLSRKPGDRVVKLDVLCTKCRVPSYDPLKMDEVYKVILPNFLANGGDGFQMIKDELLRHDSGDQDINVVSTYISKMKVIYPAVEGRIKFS
Nature of the data set: CD73 enzyme inhibition assay (recombinant hCD73, AMP substrate, phosphate detection). Type of data set: biochemical. Conditions: 37° C. 20 min, absorbance 635 nm. As to the method:
Test compound solution preparation: Stock solution of a test compound was prepared in DMSO at 10 mM concentration. A series of preset 10-concentration solutions of a test compound were prepared by diluting the stock solution in 5-fold gradient dilution with DMSO.
Assay buffer (1×): […] Tris, 25 mM NaCl, 1 mM MgCl2, pH 7.5, 0.005% Tween-20 (freshly prepared, and ready for use).
An aliquot of 0.25 μL of compound solution or DMSO (blank control) was added to each test well of a micro well plate. Recombinant human 5′-nucleotidase (hCD73) was diluted to 1 nM in assay buffer; and an aliquot of 25 μL hCD73 (1 nM) solution was added to the corresponding wells of the plate. The contents of the well were well-mixed, and the plate was covered with sealing film, centrifuged at 1000 rpm for 30 sec., followed by incubation at room temperature for 15 min. AMP, the substrate, was diluted to 60 μM concentration in the assay buffer. To each reaction well was added 25 μL of AMP solution. After mixing well, the plate was covered with sealing film, centrifuged at 1000 rpm for 30 sec., and incubated at 37° C. for 20 min. The absorbance signal (end point) was measured on SPARK plate reader at 635 nm (See PiColorLock™ Gold Phosphate Detection System (Abcam) test kit for reference).
The reaction wells containing CD73 enzyme, substrate AMP and DMSO (no compound) were used as positive control, and the reaction wells containing substrate AMP and DMSO but no CD73 enzyme were used as negative control. The percent (%) inhibition at each concentration of compound was calculated based on and relative to the signal in the High and Low control wells contained within each assay plate. The High control wells were considered as 0% inhibition, and the low control wells, which didn't contain any compound but rather DMSO (final concentration=0.5%), as 100% inhibition. IC50 values were obtained using GraphPad Prism software.

For data set [2], the system named is human T cell. Nature of the data set: CD73 cellular assay (T cell stimulation assay: CellTiter-Glo proliferation and IFN-γ ELISA). It counts as cell-based. Conditions: human T cells, anti-CD3/CD28, AMP + EHNA, 72 hours. The method, then: Day 2, human T cell seeding: (a) washing the coated plate (from Day 1) with sterilized PBS buffer (2×100 uL); (b) re-suspending T cells and adjusting cell density to 0.5×10^6 cells/mL with growth media (X-VIVO 15+1% Pen/strep+1% glutamine), and seeding 100 μL/well (50,000 cells/well) in 96-well plates; (c) diluting CD28 antibody for 8× working concentration (8 μg/mL) with growth media, giving 1 μg/mL of the final concentration, followed by addition of CD28 antibody (25 μL) to cell plate; incubating the plates under 5% CO2 at 37° C. for 60 min; (d) adding compound (25 μL, 8×dilution with growth media) to cell plate, and incubating the plates under 5% CO2 at 37° C. for 60 min; (e) adding AMP (25 μL) and EHNA (25 μL, 8×dilution with growth media) to cell plate; (f) incubating the plates under 5% CO2 at 37° C. for 72 hours.
Day 5, collecting cell growth media and testing cell proliferation: (a) centrifuging the cell plate (1,000 rpm) for 5 min; (b) harvesting 150 μL of the cell culture media from each well to 96 well plate, followed by measurement of IFN-r expression by ELISA test; (c) taking a portion of the cell culture supernatant for cytokine analysis, removing the remaining supernatant, followed by addition of fresh growth media (X-VIVO 15+1% Pen/strep+1% glutamine, 100 μL); (d) adding Celltiter-Glo solution (50 μL) into each well for the measurement of cell proliferation by: (e) incubating the plates at room temperature for 10 min on a shaker; (f) transferring 100 μL solution into 96-well white plate and taking the readout of the Celltiter-Glo data using a TECAN Reader.

Data set [3] can be described thus: Pharmacokinetic evaluation in ICR mice after intravenous injection. Type of data set: in vivo. The conditions noted are these: mouse; ICR male mice, 1.0 mg/kg intravenous, plasma. The method, then: A test compound (1.0 mg/kg) was administered to fasted ICR male mice via intravenous injection, and blood samples were collected at time points of 0.08, 0.25, 0.5, 1, 2, 4, 6, 8 and 24 h after the administration. Plasma sample was separated by centrifugation (8000 rpm) and stored at −80° C. until the sample was analyzed. Concentrations of the test compound in the plasma were determined by HPLC-MS/MS: the plasma was dispensed into appropriate tubes containing internal standard and methanol or acetonitrile. The tubes were mixed vigorously for 3 minutes to achieve deproteinization and then centrifuged at 8000 rpm for 5 minutes. The supernatant was transferred to an autosampler vial, injected into the chromatographic system, and quantified on MS/MS detector. Pharmacokinetic parameters including AUC0-4, Cmax, Tmax, t1/2, MRT, Cl and Vd were calculated using WinNonlin 6.3 software. Table 3 summarizes key PK parameters for test compounds (AUC(0-t): the area under the curve from time 0 to time t; AUC(0-∞): the area under the curve from time 0 to infinity; t1/2: Half-life; CL: clearance; C0: the concentration of drug in blood if the drug molecules enter the circulation and are distributed immediately (i.e., at time 0)).

The mark [4] stands for this setting: read-out: EC50 CTG (CellTiter-Glo, cell proliferation).
Where [5] appears, read: read-out: EC50 IFN-γ (ELISA, indicator for T-cell activity).

Where two headings read alike, the source gives them in different places.

For the molecule `O=P(O)(O)CP(=O)(O)OC[C@H]1O[C@@H](n2cnc3c(N4CCC5(CCCCC5)C4)nc(Cl)nc32)[C@@H](O)C1O` (some centres unmarked) [Compound b, reference compound], the IC50 in data set [1] came out at 1.08 nM. Further, the EC50 in data set [2] (setting [4]) amounted to 7.53 nM; in data set [2] (setting [5]) it was 14.2 nM. The clearance in data set [3] is 1.85 mL/min/kg.
Take `O=P(O)(O)CP(=O)(O)OC[C@H]1O[C@@H](n2cnc3c(N4CC5(CCc6ccccc65)C4)nc(Cl)nc32)[C@@H](O)C1O` (stereo partly drawn) [d-1]: in data set [1], the concentration for half-maximal inhibition (IC50) was 0.47 nM. Also, the EC50 in data set [2] (setting [4]) stood at 3.13 nM; in data set [2] (setting [5]), 1.45 nM. The clearance in data set [3] was 2.65 mL/min/kg.
For the molecule `O=P(O)(O)CP(=O)(O)OC[C@H]1O[C@@H](n2cnc3c(N4CCC(c5ccccc5)(c5ccccc5)C4)nc(Cl)nc32)C(O)C1O` (stereo partly drawn) [d-33], in data set [1], the half-maximal inhibitory concentration (IC50) is 1.76 nM. In addition, the EC50 in data set [2] (setting [4]) worked out at 4.07 nM; in data set [2] (setting [5]), 2.53 nM.
